Assay: excess molar enthalpy (molar enthalpy of mixing); xn = mol fraction of the nth substance listed
Settings: 101 kPa, Liquid, Flow calorimetry

CC(C)CC(C)(C)C [2,2,4-trimethylpentane] + CCCCO
313.15 K
Settings | excess molar enthalpy [kcal/mol]
x1 = 0.0502 | 0.0251
x1 = 0.1001 | 0.0487
x1 = 0.1505 | 0.072
x1 = 0.2003 | 0.0939
x1 = 0.2505 | 0.115
x1 = 0.3001 | 0.134
x1 = 0.3504 | 0.152
x1 = 0.4001 | 0.167
x1 = 0.4499 | 0.181
x1 = 0.5008 | 0.192
x1 = 0.5501 | 0.2
x1 = 0.5999 | 0.205
x1 = 0.6498 | 0.207
x1 = 0.7 | 0.206
x1 = 0.75 | 0.201
x1 = 0.7996 | 0.193
x1 = 0.8502 | 0.179
x1 = 0.9001 | 0.159
x1 = 0.9506 | 0.125

CCCCO [butan-1-ol] + Cc1ccccc1
excess molar enthalpy [kcal/mol]
Settings | 298.15 K | 313.15 K
x2 = 0.0504 | 0.0245 | 0.0341
x2 = 0.0998 | 0.0498 | –
x2 = 0.0999 | – | 0.0685
x2 = 0.1501 | 0.0753 | 0.102
x2 = 0.2011 | 0.101 | 0.136
x2 = 0.251 | 0.125 | –
x2 = 0.2512 | – | 0.166
x2 = 0.2999 | 0.148 | –
x2 = 0.3 | – | 0.195
x2 = 0.3495 | 0.169 | –
x2 = 0.3496 | – | 0.221
x2 = 0.3998 | 0.189 | –
x2 = 0.4 | – | 0.243
x2 = 0.4509 | 0.207 | –
x2 = 0.4511 | – | 0.264
x2 = 0.5009 | 0.221 | –
x2 = 0.501 | – | 0.279
x2 = 0.5495 | 0.231 | –
x2 = 0.5496 | – | 0.291
x2 = 0.6009 | 0.239 | –
x2 = 0.601 | – | 0.299
x2 = 0.6509 | 0.242 | –
x2 = 0.6511 | – | 0.302
x2 = 0.6996 | 0.24 | –
x2 = 0.6998 | – | 0.298
x2 = 0.7512 | 0.234 | –
x2 = 0.7513 | – | 0.29
x2 = 0.7992 | 0.222 | 0.274
x2 = 0.85 | 0.203 | 0.249
x2 = 0.8993 | 0.174 | 0.21
x2 = 0.9493 | 0.124 | 0.143

C1CCCCC1 [cyclohexane] + CCCCO
313.15 K
Settings | excess molar enthalpy [kcal/mol]
x1 = 0.0505 | 0.0234
x1 = 0.1001 | 0.0459
x1 = 0.1505 | 0.0679
x1 = 0.2 | 0.0885
x1 = 0.2505 | 0.108
x1 = 0.2999 | 0.126
x1 = 0.3501 | 0.143
x1 = 0.4003 | 0.158
x1 = 0.4504 | 0.171
x1 = 0.5003 | 0.182
x1 = 0.55 | 0.19
x1 = 0.5995 | 0.195
x1 = 0.6499 | 0.197
x1 = 0.7 | 0.194
x1 = 0.7499 | 0.188
x1 = 0.7995 | 0.178
x1 = 0.8499 | 0.163
x1 = 0.8999 | 0.142
x1 = 0.9496 | 0.109

C=CCCCC [hex-1-ene] + CCCCO
excess molar enthalpy [kcal/mol]
Settings | 298.15 K | 313.15 K
x1 = 0.05 | 0.0104 | 0.0188
x1 = 0.1001 | – | 0.0398
x1 = 0.1002 | 0.0234 | –
x1 = 0.1505 | – | 0.0602
x1 = 0.1506 | 0.0372 | –
x1 = 0.2002 | – | 0.0812
x1 = 0.2003 | 0.0527 | –
x1 = 0.2499 | – | 0.102
x1 = 0.25 | 0.0676 | –
x1 = 0.3004 | – | 0.121
x1 = 0.3005 | 0.0829 | –
x1 = 0.3498 | – | 0.141
x1 = 0.35 | 0.0967 | –
x1 = 0.4 | – | 0.158
x1 = 0.4001 | 0.11 | –
x1 = 0.4498 | – | 0.174
x1 = 0.4499 | 0.123 | –
x1 = 0.5001 | – | 0.188
x1 = 0.5003 | 0.134 | –
x1 = 0.5501 | – | 0.198
x1 = 0.5503 | 0.143 | –
x1 = 0.5995 | – | 0.206
x1 = 0.5996 | 0.149 | –
x1 = 0.6504 | – | 0.21
x1 = 0.6505 | 0.154 | –
x1 = 0.7005 | – | 0.211
x1 = 0.7006 | 0.155 | –
x1 = 0.7498 | – | 0.207
x1 = 0.7499 | 0.153 | –
x1 = 0.8005 | – | 0.2
x1 = 0.8006 | 0.147 | –
x1 = 0.8503 | 0.138 | 0.187
x1 = 0.9002 | 0.123 | 0.166
x1 = 0.9501 | 0.0969 | 0.127

C=CCCCC [hex-1-ene] + CCCCOCCCC
excess molar enthalpy [kcal/mol]
Settings | 298.15 K | 313.15 K
x2 = 0.0503 | -0.000741 | -0.001
x2 = 0.1001 | -0.00139 | –
x2 = 0.15 | – | -0.00296
x2 = 0.1501 | -0.00258 | –
x2 = 0.2 | -0.0033 | -0.00382
x2 = 0.25 | -0.00402 | -0.00447
x2 = 0.2997 | – | -0.00497
x2 = 0.2998 | -0.00452 | –
x2 = 0.3502 | -0.00488 | –
x2 = 0.3503 | – | -0.0054
x2 = 0.3994 | -0.00519 | –
x2 = 0.3995 | – | -0.00566
x2 = 0.4502 | -0.00533 | –
x2 = 0.4503 | – | -0.00581
x2 = 0.4995 | -0.00543 | –
x2 = 0.4997 | – | -0.00586
x2 = 0.5494 | -0.00533 | –
x2 = 0.5495 | – | -0.00578
x2 = 0.5996 | -0.00511 | –
x2 = 0.5997 | – | -0.00557
x2 = 0.6491 | -0.0048 | –
x2 = 0.6493 | – | -0.00521
x2 = 0.7001 | -0.00437 | –
x2 = 0.7002 | – | -0.00468
x2 = 0.7491 | -0.00382 | –
x2 = 0.7492 | – | -0.00425
x2 = 0.7995 | -0.00296 | –
x2 = 0.7996 | – | -0.00361
x2 = 0.8501 | -0.00232 | -0.00284
x2 = 0.8996 | -0.00155 | -0.00203
x2 = 0.9504 | -0.000717 | -0.00108

CC1CCCCC1 [methylcyclohexane] + CCCCO
excess molar enthalpy [kcal/mol]
Settings | 298.15 K | 313.15 K
x1 = 0.0498 | 0.0151 | 0.0212
x1 = 0.1 | 0.0301 | 0.0424
x1 = 0.1505 | 0.0449 | 0.0629
x1 = 0.2005 | 0.0588 | 0.0826
x1 = 0.2506 | 0.0725 | –
x1 = 0.2507 | – | 0.101
x1 = 0.3 | 0.0852 | 0.119
x1 = 0.3502 | 0.0974 | 0.135
x1 = 0.4002 | 0.109 | 0.15
x1 = 0.45 | – | 0.163
x1 = 0.4501 | 0.119 | –
x1 = 0.5006 | – | 0.174
x1 = 0.5007 | 0.127 | –
x1 = 0.5497 | 0.134 | 0.182
x1 = 0.6004 | 0.138 | 0.188
x1 = 0.6505 | 0.14 | 0.19
x1 = 0.6999 | 0.14 | –
x1 = 0.7 | – | 0.189
x1 = 0.7498 | 0.136 | 0.184
x1 = 0.7999 | 0.129 | –
x1 = 0.8 | – | 0.176
x1 = 0.8504 | 0.118 | 0.162
x1 = 0.8997 | 0.104 | 0.144
x1 = 0.9505 | 0.0814 | 0.112

CC1CCCCC1 [methylcyclohexane] + CCCCOCCCC
excess molar enthalpy [kcal/mol]
Settings | 298.15 K | 313.15 K
x2 = 0.0497 | 0.0055 | 0.00497
x2 = 0.1003 | 0.0103 | 0.00908
x2 = 0.1501 | 0.0137 | 0.0126
x2 = 0.1997 | 0.0165 | –
x2 = 0.1998 | – | 0.0153
x2 = 0.2501 | 0.0189 | 0.0175
x2 = 0.3002 | 0.0207 | 0.0193
x2 = 0.3499 | 0.0218 | –
x2 = 0.35 | – | 0.0203
x2 = 0.3993 | 0.0225 | –
x2 = 0.3994 | – | 0.0211
x2 = 0.45 | 0.0228 | –
x2 = 0.4501 | – | 0.0215
x2 = 0.4993 | 0.0226 | 0.0213
x2 = 0.5499 | 0.022 | –
x2 = 0.55 | – | 0.0207
x2 = 0.5999 | 0.021 | –
x2 = 0.6 | – | 0.0197
x2 = 0.6491 | 0.0196 | –
x2 = 0.6492 | – | 0.0184
x2 = 0.6997 | 0.0177 | 0.0168
x2 = 0.7493 | 0.0156 | 0.0147
x2 = 0.8002 | 0.0131 | 0.0123
x2 = 0.8501 | 0.0103 | 0.00966
x2 = 0.9001 | 0.00707 | 0.00674
x2 = 0.95 | 0.00356 | –
x2 = 0.9501 | – | 0.00339

Source: the NIST ThermoML archive (doi:10.1016/j.fluid.2011.11.005)
